# Source: patent US4371673A, “Water soluble forms of retinoids” (The United States of America as represented by the …, priority 1980, dated 1983)
# Values joined by “and” are separate entries in the source; they are usually repeats but may differ in a detail not shown here. Equal values may be shown once. Read-outs that look alike come from different tables or passages of the source.
# Legend:
# vitamin A-deficient rats [1] = experiment: Retinol in serum and liver of treated vitamin A-deficient rats (spectrophotometric), resorption studies; design: species or system rat (male weanling albino, Holtzman); settings: rat, in vivo, ip
# vitamin A-deficient rats [2] = experiment: Vitamin A-like activity measured by survival of rats fed vitamin A-deficient diet; assay type: in vivo, rat (male weanling albino, Holtzman); settings: for No. of surviving animals/total: 100 μg retinal equivalent for complex
# Protocol: Studies were undertaken to determine whether the chemical modification of retinoids to polymer-linked water soluble forms alter its biological activities. Specifically, the vitamin A-like activity of the mixed α-, β-dextrin complex of retinal-carboxymethyldextran hydrazone was tested on rats made vitamin A-deficient. The "animals" referred to herein should be construed as meaning rats.
# To prepare the rats for dietary studies, male weanling albino rats of the Holtzman string were fed a vitamin A-deficient diet until a weight plateau was reached. A cyclic program was then begun in which the rats which were provided with the deficient diet were supplemented with retinoic acid at a rate of 2 μg per g. This was continued for 18 days followed by 10 days of the original deficient diet. At the termination of the fourth 18-day period in which the rats were fed the retinoic acid supplemented diet, the rats were fed for 7 days with the deficient diet and then used in two types of experiments: (a) Studies of the resorption of retinal-carboxymethyldextran hydrazone from the gastrointestinal tract and (b) studies of growth support for avitamineosis. The results of the resorption studies (a) were determined by spectrophotometrically analyzing for retinol in the serum or liver. The vitamin A-like activity of the complexes of the present invention (b) was evaluated by comparison of survival rates of a control group, those fed a cyclodextrin complex of a retinoid-polymer and those fed a free retinoid derivative.
# ^a The control rats received 0.2 mL of cottonseed oil
# intraperitoneally while the treated animals received […] of retinyl
# acetate or retinoic acid in 0.2 mL cottonseed oil or retinaldextran
# complex (100 μg of retinal equivalent) in 0.2 mL water. Subsequently,
# the rats received a vitamin Adeficient diet for periods indicated in the
# Table and their survival was followed.
# In the second series of experiments, compared in Table 2, the retinal-carboxymethyldextran complex was administered intraperitoneally and the survival of the vitamin A-deficient rats was followed during the 28 to 35 days of a vitamin A-deficient diet. […] In contrast, the control rats as well as those rats which received retinoic acid (Experiment 3) died.
# [3] = Direct solubilization of retinoids by cyclodextrins and their derivatives; assay type: physicochemical; settings: read-out: Solubility of retinoid in physiological buffered saline
# Excerpt: It has been discovered that by appropriately selecting a derivatized cyclodextrin, it is unnecessary to prepare a retinoid-polymer compound preliminary to, or concurrent with, the preparation of the complex. This greatly simplifies the process of dissolving a retinoid. Thus, to prepare a solution of the cyclodextrin retinoid complex, it is merely necessary to add the components, retinoid and cyclodextrin, with stirring to an aqueous medium, such as a saline or isotonic solution, at room temperature. If one has a suitable cyclodextrin available, it is unnecessary to synthesize the cyclodextrin retinoid-polymer.
# Some examples of the solubility obtained for retinoid-dextrin complexes of the present invention in physiologically acceptable solutions are presented in Table 1. It may be noted that while the solubility of a complex of one retinoid with a particular cyclodextrin may not be great, the solubility of a complex of another retinoid, using the same cyclodextrin, may be increased several orders of magnitude.
# Solubility of retinoid (μg/ml)
# in physiological buffered saline
# (NaCl, 8 g/L; Na2 HPO4.7H2 O,
# 2.2g/L; KCl, 0.2 g/L and […]
# S91 melanoma cells = experiment: S91 melanoma cell proliferation (growth inhibition); assay type: cell-based; settings: for inhibition at 0.2 µM: Mus musculus, S91, 144 h, read-out: Percentage of growth inhibition
# Protocol: Medium was chaged on Day 3. The cells were treated for 6 days
# in vitro = settings: mouse, s9
# Excerpt: Decreased plating efficiency and cell lysis are considered indications of cytotoxic effects.
# physchem = settings: isotonic buffered saline
# Excerpt: The concentration of retinal in the complex was estimated by comparison of the absorbance at the peak of the absorbance spectrum with the absorbance of free retinal in ethanol at 380 nm.
# [4] = buffered saline with α-cyclodextrin, α-cyclodextrin, 50 mg/ml
# [5] = buffered saline with β-cyclodextrin, β-cyclodextrin, 17 mg/ml
# [6] = physiological buffered saline, dodecakis-2,6-O-methyl-α-cyclodextrin, 25 mg/ml
# [7] = physiological buffered saline, hexadecakis-2,6-O-methyl-γ-cyclodextrin, 25 mg/ml
# [8] = physiological buffered saline, solubilization agent: none
# [9] = physiological buffered saline, tetradecakis-2,6-O-methyl-β-cyclodextrin, 50 mg/ml
# [10] = physiological buffered saline, γ-cyclodextrin, 50 mg/ml
structure (smiles),measurement,setting,value
CC1=C(/C=C/C(C)=C/C=C/C(C)=C/C(=O)O)C(C)(C)CCC1 [retinoic acid],Serum retinol (in words),vitamin A-deficient rats [1],not detectable
same,day of death of animals,"vitamin A-deficient rats [2]; Experiment 3, individual animals",14 days and 28 days and 30 days
same,No. of surviving animals/total,"vitamin A-deficient rats [2]; Experiment 3, 31 days on vitamin A-deficient diet, intraperitoneal",0/3
same,survival / vitamin A-like activity (in words),"vitamin A-deficient rats [2]; intraperitoneal, 28 to 35 days of vitamin A-deficient diet",died
same,solubility,[3]; [4],140 µg/mL
same,solubility,[3]; [5],2000 µg/mL
same,solubility,[3]; [6],460 µg/mL
same,solubility,[3]; [7],140 µg/mL
same,solubility,[3]; [8],20 µg/mL
same,solubility,[3]; [9],460 µg/mL
same,solubility,[3]; [10],130 µg/mL
CC(=O)OC/C=C(C)/C=C/C=C(C)/C=C/C1=C(C)CCCC1(C)C [Retinyl acetate],No. of surviving animals/total,"vitamin A-deficient rats [2]; Experiment 1, 35 days on vitamin A-deficient diet, intraperitoneal",3/3
same,No. of surviving animals/total,"vitamin A-deficient rats [2]; Experiment 2, 28 days on vitamin A-deficient diet, intraperitoneal",4/4
CC1=C(/C=C/C(C)=C/C=C/C(C)=C/C=O)C(C)(C)CCC1 [retinal],growth rate of cells after 48 hours (in words),"S91 melanoma cells; 48 hours, retinal 1 μM, complex 10 μM retinal moiety, FIG. 3, vs untreated controls",reduced in comparison to the untreated controls
same,"growth inhibition, dose dependence (in words)","S91 melanoma cells; 6 days, below 2 μM (retinal) and 40 μM (complex), FIG. 2",dose-dependent inhibition
same,inhibition at 0.2 µM,"S91 melanoma cells; 0.2 μM, 6 days",28%
same,inhibition at 0.2 µM,"S91 melanoma cells; second retinal line, printed 0.2 μM, 6 days",52%
same,relative potency as growth inhibitor (in words),S91 melanoma cells; all concentrations where retinal is not toxic,more potent inhibitor than the corresponding complex
same,"inhibition of cell proliferation, first 24 hours (in words)","S91 melanoma cells; first 24 hours, retinal 1 μM, complex 10 μM retinal moiety, FIG. 3",no apparent inhibition of cell proliferation
same,CC50,in vitro,4 µM
same,MCC,in vitro,≥ 10 µM
same,MNTC,in vitro,2000 nM
same,solubility,[3]; [4],4 µg/mL
same,solubility,[3]; [5],2 µg/mL
same,solubility,[3]; [6],7 µg/mL
same,solubility,[3]; [7],4 µg/mL
same,solubility,[3]; [8],< 1 µg/mL
same,solubility,[3]; [9],570 µg/mL
same,solubility,[3]; [10],1 µg/mL
same,solubility,physchem,< 0.01 µg/mL
